Test results as given in patent publication US8741915B2, “Dihydropyrimidin-2(1H)-one compounds as S-nitrosoglutathione reductase inhibitors” (N30 Pharmaceuticals, Inc., priority 2009, dated 2014).

molecular target: GSNOR (Homo sapiens (Human), UniProt P11766); test: GSNOR assay (inhibition of GSNOR activity in vitro, change in 340 nm absorbance with GSNO/NADH); details: GSNOR IC50, Table 1, racemates and separated enantiomers
Sequence (P11766 whole entry): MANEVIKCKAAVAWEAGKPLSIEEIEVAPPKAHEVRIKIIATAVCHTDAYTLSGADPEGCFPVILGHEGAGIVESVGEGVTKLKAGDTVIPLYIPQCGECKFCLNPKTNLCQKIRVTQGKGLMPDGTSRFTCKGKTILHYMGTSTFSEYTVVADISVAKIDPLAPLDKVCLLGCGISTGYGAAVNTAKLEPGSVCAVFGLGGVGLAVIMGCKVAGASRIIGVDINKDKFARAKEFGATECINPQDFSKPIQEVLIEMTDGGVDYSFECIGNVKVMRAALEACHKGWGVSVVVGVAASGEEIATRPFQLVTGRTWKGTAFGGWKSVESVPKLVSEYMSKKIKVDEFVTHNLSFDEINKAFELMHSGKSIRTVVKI

Compared with CCOc1cc([C@@H]2NC(=O)NC(c3cnn(C)c3)=C2c2ccsc2)cc(C(=O)O)c1O [Example 146, (S)-3-ethoxy-2-hydroxy-5-(6-(1-methyl-1H-pyrazol-4-yl)-2-oxo-5-(thiophen-3-yl)-1,2,3,4-tetrahydropyrimidin-4-yl)benzoic acid], Cn1cc(C2=C(c3ccsc3)[C@H](c3ccc(C(=O)O)c(O)c3)NC(=O)N2)cn1 [Example 169, (S)-2-hydroxy-4-(6-(1-methyl-1H-pyrazol-4-yl)-2-oxo-5-(thiophen-3-yl)-1,2,3,4-tetrahydropyrimidin-4-yl)benzoic acid] is 1.8-fold higher in IC50: 13 nM for the first, 23 nM for the second. The first is the more potent here.

same assay, conditions: IC50, upper bound (about <)

COc1cc(C2NC(=O)NC(c3ccccc3)=C2c2ccccc2)cc([N+](=O)[O-])c1O (centres unmarked) [Example 9, 4-(4-hydroxy-3-methoxy-5-nitrophenyl)-5,6-diphenyl-3,4-dihydropyrimidin-2(1H)-one] and CN(C)CCOc1cc(C2NC(=O)NC(c3ccccc3)=C2c2ccccc2)cc([N+](=O)[O-])c1O (centres unmarked) [Example 170, 4-(3-(2-(dimethylamino)ethoxy)-4-hydroxy-5-nitrophenyl)-5,6-diphenyl-3,4-dihydropyrimidin-2(1H)-one] cannot be ordered by IC50: < 100 nM for the first, < 1000 nM for the second.

CCOc1cc(C2NC(=O)NC(c3ccccc3)=C2c2ccccc2F)cc([N+](=O)[O-])c1O (centres unmarked) [Example 13, 4-(3-ethoxy-4-hydroxy-5-nitrophenyl)-5-(2-fluorophenyl)-6-phenyl-3,4-dihydropyrimidin-2(1H)-one] and CCOc1cc(C2NC(=O)NC(c3ccccc3)=C2c2ccccc2C)cc([N+](=O)[O-])c1O (centres unmarked) [Example 26, 4-(3-ethoxy-4-hydroxy-5-nitrophenyl)-6-phenyl-5-o-tolyl-3,4-dihydropyrimidin-2(1H)-one] cannot be ordered by IC50: < 100 nM for the first, < 1000 nM for the second.

CCOc1cc(C2NC(=O)NC(c3ccccc3)=C2c2cccc(OC)c2)cc([N+](=O)[O-])c1O (centres unmarked) [Example 23, 4-(3-ethoxy-4-hydroxy-5-nitrophenyl)-5-(3-methoxyphenyl)-6-phenyl-3,4-dihydropyrimidin-2(1H)-one] and CCOc1cc(C2NC(=O)NC(c3ccccc3)=C2c2cccc(C#N)c2)cc([N+](=O)[O-])c1O (centres unmarked) [Example 29, 3-(4-(3-ethoxy-4-hydroxy-5-nitrophenyl)-2-oxo-6-phenyl-1,2,3,4-tetrahydropyrimidin-5-yl)benzonitrile] cannot be ordered by IC50: < 100 nM for the first, < 100 nM for the second.

CCOc1cc(C2NC(=O)NC(c3cccc(C#N)c3)=C2c2ccccc2)cc([N+](=O)[O-])c1O (centres unmarked) [Example 53, 3-(6-(3-ethoxy-4-hydroxy-5-nitrophenyl)-2-oxo-5-phenyl-1,2,3,6-tetrahydropyrimidin-4-yl)benzonitrile] and CCOc1cc(C2NC(=O)NC(c3ccc(C#N)cc3)=C2c2ccccc2)cc([N+](=O)[O-])c1O (centres unmarked) [Example 63, 4-(6-(3-ethoxy-4-hydroxy-5-nitrophenyl)-2-oxo-5-phenyl-1,2,3,6-tetrahydropyrimidin-4-yl)benzonitrile] cannot be ordered by IC50: < 100 nM for the first, < 100 nM for the second.

CCOc1cc(C2NC(=O)NC(c3ccc4c(c3)OCO4)=C2c2ccccc2)cc([N+](=O)[O-])c1O (centres unmarked) [Example 61, 6-(benzo[d][1,3]dioxol-5-yl)-4-(3-ethoxy-4-hydroxy-5-nitrophenyl)-5-phenyl-3,4-dihydropyrimidin-2(1H)-one] and CCOc1cc(C2NC(=O)NC(c3ccncc3)=C2c2ccccc2)cc([N+](=O)[O-])c1O (centres unmarked) [Example 71, 4-(3-ethoxy-4-hydroxy-5-nitrophenyl)-5-phenyl-6-(pyridin-4-yl)-3,4-dihydropyrimidin-2(1H)-one] cannot be ordered by IC50: < 100 nM for the first, < 100 nM for the second.

CCOc1cc(C2NC(=O)NC(c3ccccc3)=C2c2ccccc2)cc(C#N)c1O (centres unmarked) [Example 69, 3-ethoxy-2-hydroxy-5-(2-oxo-5,6-diphenyl-1,2,3,4-tetrahydropyrimidin-4-yl)benzonitrile] and CCOc1cc(C2NC(=O)NC(c3ccccc3)=C2c2ccccc2)cc(O)c1C(=O)O (centres unmarked) [Example 161, 2-ethoxy-6-hydroxy-4-(2-oxo-5,6-diphenyl-1,2,3,4-tetrahydropyrimidin-4-yl)benzoic acid] cannot be ordered by IC50: < 1000 nM for the first, < 100 nM for the second.

CCOc1cc(C2NC(=O)NC(c3ccc(NC(C)=O)cc3)=C2c2ccccc2)cc([N+](=O)[O-])c1O (centres unmarked) [Example 73, N-(4-(6-(3-ethoxy-4-hydroxy-5-nitrophenyl)-2-oxo-5-phenyl-1,2,3,6-tetrahydropyrimidin-4-yl)phenyl)acetamide] and CCOc1cc(C2NC(=O)NC(c3ccc(NC(=O)OC)cc3)=C2c2ccccc2)cc([N+](=O)[O-])c1O (centres unmarked) [Example 83, methyl 4-(6-(3-ethoxy-4-hydroxy-5-nitrophenyl)-2-oxo-5-phenyl-1,2,3,6-tetrahydropyrimidin-4-yl)phenylcarbamate] cannot be ordered by IC50: < 100 nM for the first, < 100 nM for the second.

CCOc1cc(C2NC(=O)NC(c3cccc4ccccc34)=C2c2ccccc2)cc([N+](=O)[O-])c1O (centres unmarked) [Example 81, 4-(3-ethoxy-4-hydroxy-5-nitrophenyl)-6-(naphthalen-1-yl)-5-phenyl-3,4-dihydropyrimidin-2(1H)-one] and CCOc1cc(C2NC(=O)NC(c3ccco3)=C2c2ccccc2)cc([N+](=O)[O-])c1O (centres unmarked) [Example 111, 4-(3-ethoxy-4-hydroxy-5-nitrophenyl)-6-(furan-2-yl)-5-phenyl-3,4-dihydropyrimidin-2(1H)-one] cannot be ordered by IC50: < 100 nM for the first, < 100 nM for the second.

O=C1NC(c2ccccc2)=C(c2ccccc2)C(c2cccc(C(=O)O)c2)N1 (centres unmarked) [Example 93, 3-(2-oxo-5,6-diphenyl-1,2,3,4-tetrahydropyrimidin-4-yl)benzoic acid] and O=C1NC(c2ccccc2)=C(c2ccccc2)C(c2ccc(O)c([N+](=O)[O-])c2)N1 (centres unmarked) [Example 95, 4-(4-hydroxy-3-nitrophenyl)-5,6-diphenyl-3,4-dihydropyrimidin-2(1H)-one] cannot be ordered by IC50: < 100000 nM for the first, < 1000 nM for the second.

CCOc1cc(C2NC(=O)NC(c3ccc(C(F)(F)F)cc3)=C2c2ccccc2)cc([N+](=O)[O-])c1O (centres unmarked) [Example 113, 4-(3-ethoxy-4-hydroxy-5-nitrophenyl)-5-phenyl-6-(4-(trifluoromethyl)phenyl)-3,4-dihydropyrimidin-2(1H)-one] and CCOc1cc(C2NC(=O)NC(C3CCCC3)=C2c2ccccc2)cc([N+](=O)[O-])c1O (centres unmarked) [Example 172, 6-cyclopentyl-4-(3-ethoxy-4-hydroxy-5-nitrophenyl)-5-phenyl-3,4-dihydropyrimidin-2(1H)-one] cannot be ordered by IC50: < 100 nM for the first, < 100 nM for the second.

CCOc1cc([C@@H]2NC(=O)NC(c3cnn(C)c3)=C2c2ccsc2)cc(C(=O)O)c1O [Example 146, (S)-3-ethoxy-2-hydroxy-5-(6-(1-methyl-1H-pyrazol-4-yl)-2-oxo-5-(thiophen-3-yl)-1,2,3,4-tetrahydropyrimidin-4-yl)benzoic acid] and Cn1cc(C2=C(c3ccsc3)[C@H](c3ccc(C(=O)O)c(O)c3)NC(=O)N2)cn1 [Example 169, (S)-2-hydroxy-4-(6-(1-methyl-1H-pyrazol-4-yl)-2-oxo-5-(thiophen-3-yl)-1,2,3,4-tetrahydropyrimidin-4-yl)benzoic acid] cannot be ordered by IC50: < 100 nM for the first, < 100 nM for the second.

O=C1NC(c2ccccc2)=C(c2ccccc2)C(c2cc(O)c(C(=O)O)c(Cl)c2)N1 (centres unmarked) [Example 163, 2-chloro-6-hydroxy-4-(2-oxo-5,6-diphenyl-1,2,3,4-tetrahydropyrimidin-4-yl)benzoic acid] and COc1cc(C2NC(=O)NC(c3ccccc3)=C2c2ccccc2)cc(O)c1C(=O)O (centres unmarked) [Example 165, 2-hydroxy-6-methoxy-4-(2-oxo-5,6-diphenyl-1,2,3,4-tetrahydropyrimidin-4-yl)benzoic acid] cannot be ordered by IC50: < 100 nM for the first, < 100 nM for the second.

Cn1cc(C2=C(c3ccccc3)C(c3ccc(C(=O)O)c(O)c3)NC(=O)N2)cn1 (centres unmarked) [Example 167, 2-hydroxy-4-(6-(1-methyl-1H-pyrazol-4-yl)-2-oxo-5-phenyl-1,2,3,4-tetrahydropyrimidin-4-yl)benzoic acid] and CCOc1cc(C2NC(=O)NC(c3ccccc3)=C2C2CCCCC2)cc([N+](=O)[O-])c1O (centres unmarked) [Example 177, 5-cyclohexyl-4-(3-ethoxy-4-hydroxy-5-nitrophenyl)-6-phenyl-3,4-dihydropyrimidin-2(1H)-one] cannot be ordered by IC50: < 100 nM for the first, < 100 nM for the second.

CCOc1cc(C2NC(=O)NC(C3CCCCC3)=C2c2ccsc2)cc([N+](=O)[O-])c1O (centres unmarked) [Example 174, 6-cyclohexyl-4-(3-ethoxy-4-hydroxy-5-nitrophenyl)-5-(thiophen-3-yl)-3,4-dihydropyrimidin-2(1H)-one] was tested, and the IC50 was < 100 nM.
